Data published in patent EP3046573B1, “AMYLIN ANALOGUES” (Zealand Pharma A/S, priority 2013, dated 2015).
Numbered stars: 1 amine (or outer) side, 2 acyl side, 3 side chain; on linkers, the order of the positions; unused ones are H or OH. Bridge positions count the residues as written; N and C are the ends. Square brackets hold non-standard residues; d marks the D form. Peptide text beside a SMILES is read from it. * marks the point of attachment. C20 diacid = O=C(O)CCCCCCCCCCCCCCCCCCC(=O)*; γGlu = O=C(O)[C@H](CCC(=O)[*:2])N[*:1]; NMeI = CC[C@H](C)[C@H](NC)C(=O)O; Sar = CNCC(=O)O

What was measured:
[1] = system: male Zucker diabetic fatty (ZDF) rats; assay: Efficacy testing: glycemic control in Zucker diabetic fatty rats; format: in vivo; conditions: for terminal HbA1c levels: 4 weeks, vehicle 8.7 ± 0.2; for non-fasting blood glucose levels on day 13 and on day 27: compared to the vehicle treated rats, P < 0.001; for fasting blood glucose levels: terminal, Compound 82 3, 30, and 100 nmol/kg, Compound 18 30 nmol/kg, P < 0.001 vs. vehicle
Description: (§1) Whole-blood glucose levels were determined on tail-vein blood samples by the Biosen (EKF Diagnostic, Germany) enzyme-based electrode method. Blood samples were analyzed for glycated hemoglobin (HbA1c) using a Cobas c111 analyzer (Roche Diagnostics, Mannheim, Germany). Plasma insulin levels were measured using a Meso Scale Discovery (MSD) system (Rockville, MD, USA). Liver fat content was determined by magnetic resonance (MR) scanning using an Echo systems MR scanner. Fat depots were measured by weighing of excised fat.
84 male Zucker diabetic fatty (ZDF) rats (9-10 weeks of age) were used in this study. The animals were housed in groups of n = 2. Stratification of the animals was based on non-fasting blood glucose (primary), changes in non-fasting blood glucose measured from the arrival of the animals until one week before the initiation of the study (secondary) and body weight (tertiary). The animals were further divided into two "teams" with a pair-fed group (group 2) allocated to team 2. Animals from group 2 were pair-fed in order to compare between the contribution made by reduced food intake and by drug-induced effects on glycemic control. The amount of food eaten by the animals treated with Compound 82 (30 nmol/kg, team 1) each day was determined, and the same amount was given to a vehicle-treated pair-fed group of animals the following day.
Rats were treated for 4 weeks with Compound 82 (3, 30 and 100 nmol/kg, sc, every (ev.) 5th day), Compound 18 (30 nmol/kg sc, every 5th day), or the GLP-1 analogue liraglutide (40 nmol/kg sc, twice daily (bid)).
The effects of the compounds on glycemic control were investigated by measurement of non-fasting and fasting blood glucose levels and HbA1c levels.
Statistical analyses were performed using GraphPad™ Prism version 5. The measured parameters were compared using one- way ANOVA followed by Dunnett's multiple comparison test. Comparison between the pair-fed vehicle-treated group and the Compound 82 (30 nmol/kg) group was done using Student's two-tailed and unpaired t-test. Differences were considered statistically significant at p < 0.05.

[2] = system: rats self-selecting between a low-fat diet and a high-fat diet; assay: Food preference (FP) and development of obesity in rats fed on a high-fat diet (HFD); format: in vivo, Male Sprague Dawley rats; conditions: 30 nmol/kg sc, QW, 4 weeks
Description: as §1
(§2) Male Sprague Dawley rats obtained from Taconic A/S, Denmark, were used in this study. The animals arrived at least 7 days before the study start to allow acclimatization to experimental conditions. From arrival and throughout the study, the rats were housed in groups of 2 (n = 2) in a light-, temperature- and humidity-controlled room (reversed 12/12 h light/dark cycle: lights turned off during day-time and on during night-time; temperature 20-22°C; relative humidity 50-80%) and maintained on a HFD (60% of total energy from fat, D12492, Research Diet Inc., New Brunswick, USA) for 2 weeks. Animals had access ad libitum to water (domestic quality tap water with citric acid added to pH ∼ 3.6) during the entire study. The rats were stratified according to body weight (primary) and % body weight gain from the beginning of feeding with HFD (secondary). Three days before the initiation of treatment the rats were allowed to self-select between a low-fat diet (LFD, standard chow, 11 % of total energy from fat, Atromin™ 1324, Brogaarden A/S, Gentofte, Denmark) and a high-fat diet, and they remained on the self-selected regimen for the duration of the study. Rats were treated for four weeks with Compound 18 [30 nmol/kg sc, once weekly (QW)] or vehicle.
Statistical analyses were performed using GraphPad™ Prism version 5. […]

Male Sprague Dawley rats [3] = assay: Efficacy testing: development of obesity in rats fed on a high-fat diet (HFD); format: in vivo
Description: as §1
(§3) Male Sprague Dawley rats obtained from Taconic A/S, Denmark, were used in this study. The animals arrived at least 7 days before the study start to allow acclimatization to experimental conditions. From arrival and throughout the study, the rats were housed in groups of 2 (n = 2) in a light-, temperature- and humidity-controlled room (reversed 12/12 h light/dark cycle: lights turned off during day-time and on during night-time; temperature 20-22°C; relative humidity 50-80%) and maintained on a HFD (60% of total energy from fat, D12492, Research Diet Inc., New Brunswick, USA) for 2 weeks. Animals had access ad libitum to water (domestic quality tap water with citric acid added to pH ∼ 3.6) during the entire study.The rats were stratified according to body weight (primary) and % body weight gain from the beginning of feeding with HFD (secondary), and treated for 4 weeks with Compound 18 [1, 5 and 30 nmol/kg sc, once weekly (QW)] and Compound 18 (5 nmol/kg sc, every 4th day), and with comparison/reference compounds NN96 (a pramlintide analogue, see Example 5; 30 nmol/kg sc, QW) and the marketed human GLP-1 receptor agonist liraglutide [50 nmol/kg sc, twice daily (bid)], respectively.
(§4) Post-hoc Dunnett's multiple comparison tests were conducted. When appropriate, the two-way ANOVA test was used followed by Bonferroni post tests; p < 0.05 was in all cases considered statistically significant.
(§5) The preventive effects of Compound 18 of the present invention on the development of obesity were investigated by measurement of body weight, food intake, water intake, blood glucose levels, plasma insulin levels, liver fat mass and fat depots.

HFD-fed rats = assay: Development of obesity in rats fed on a high-fat diet (HFD); format: in vivo, Male Sprague Dawley rats
Description: as §1, §3, §4, §5

Male Sprague Dawley rats [4] = assay: Efficacy testing: food preference (FP) and development of obesity in rats fed on a high-fat diet (HFD); format: in vivo; conditions: rats self-selecting LFD/HFD, 30 nmol/kg sc, QW, 4 weeks
Description: as §1, §2
Statistical analyses were performed using GraphPad™ Prism version 5.
The efficacy of Compound 18 in relation to change in food preference and in relation to the development of obesity were investigated by measurement of food preference, body weight, food intake, water intake, blood glucose levels, plasma insulin levels, mass of liver fat and mass of fat depots.

In the case of `CC[C@H](C)[C@@H](C(=O)N[C@@H](CC(C)C)C(=O)N[C@@H](CO)C(=O)N[C@@H](CO)C(=O)N[C@H](C(=O)N[C@@H](CCC(=O)O)C(=O)N[C@H](C(=O)NCC(=O)N[C@@H](CO)C(=O)N[C@@H](CCC(=O)O)C(=O)N[C@H](C(=O)N1CCC[C@H]1C(N)=O)[C@@H](C)O)C(C)C)[C@@H](C)O)N(C)C(=O)[C@H](C)NC(=O)CN(C)C(=O)[C@H](Cc1ccccc1)NC(=O)[C@H](CO)NC(=O)[C@H](CO)NC(=O)[C@H](CCCNC(=N)N)NC(=O)[C@H](Cc1c[nH]cn1)NC(=O)[C@H](CC(C)C)NC(=O)[C@H](Cc1ccccc1)NC(=O)[C@H](CCC(=O)O)NC(=O)[C@H](C)NC(=O)[C@H](CC(C)C)NC(=O)[C@H](CCCNC(=N)N)NC(=O)[C@H](CCC(N)=O)NC(=O)[C@@H](NC(=O)[C@H](C)NC(=O)[C@@H]1CSSC[C@H](NC(=O)[C@H](CCCNC(=N)N)NC(=O)CC[C@H](NC(=O)CCCCCCCCCCCCCCCCCCC(=O)O)C(=O)O)C(=O)N[C@@H](CC(N)=O)C(=O)N[C@@H]([C@@H](C)O)C(=O)N[C@@H](C)C(=O)N[C@@H]([C@@H](C)O)C(=O)N1)[C@@H](C)O` [Compound 82, [19CD]-isoGlu-RC()NTATC()ATQRLAEFLHRSSF-Gly(Me)-A-Ile(Me)-LSSTEVGSETP-NH2] ({C20 diacid-γGlu}-RCNTATCATQRLAEFLHRSSF[Sar]A[NMeI]LSSTEVGSETP-NH2; disulfide 2-7), the “terminal HbA1c levels” value ([1]; 3 nmol/kg sc every 5th day) is reported as 5.6 ± 0.2%, the “terminal HbA1c levels” value ([1]; 30 nmol/kg sc every 5th day) is reported as 5.4 ± 0.1% and the “HbA1c levels compared to the pair-fed group” value ([1]; 30 nmol/kg, P < 0.05) is reported as “significant reductions”. For the same compound, the “terminal HbA1c levels” value ([1]; 100 nmol/kg sc every 5th day) was 5.4 ± 0.1%, the “non-fasting blood glucose levels on day 13 and on day 27” value [1] was “significantly lower” and the “fasting blood glucose levels” value [1] was “significantly decreased”.
With `CC[C@H](C)[C@@H](C(=O)N[C@@H](CC(C)C)C(=O)N[C@@H](CO)C(=O)N[C@@H](CO)C(=O)N[C@H](C(=O)N[C@@H](CC(N)=O)C(=O)N[C@H](C(=O)NCC(=O)N[C@@H](CO)C(=O)N[C@@H](CC(N)=O)C(=O)N[C@H](C(=O)N1CCC[C@H]1C(N)=O)[C@@H](C)O)C(C)C)[C@@H](C)O)N(C)C(=O)[C@H](C)NC(=O)CN(C)C(=O)[C@H](Cc1ccccc1)NC(=O)[C@H](CC(N)=O)NC(=O)[C@H](CC(N)=O)NC(=O)[C@H](CO)NC(=O)[C@H](CO)NC(=O)[C@H](CCCNC(=N)N)NC(=O)[C@H](Cc1c[nH]cn1)NC(=O)[C@H](CC(C)C)NC(=O)[C@H](Cc1ccccc1)NC(=O)[C@H](CCC(=O)O)NC(=O)[C@H](C)NC(=O)[C@H](CC(C)C)NC(=O)[C@H](CCCNC(=N)N)NC(=O)[C@H](CCC(N)=O)NC(=O)[C@@H](NC(=O)[C@H](C)NC(=O)[C@@H]1CSSC[C@H](NC(=O)[C@H](CCCNC(=N)N)NC(=O)CC[C@H](NC(=O)CCCCCCCCCCCCCCCCCCC(=O)O)C(=O)O)C(=O)N[C@@H](CC(N)=O)C(=O)N[C@@H]([C@@H](C)O)C(=O)N[C@@H](C)C(=O)N[C@@H]([C@@H](C)O)C(=O)N1)[C@@H](C)O` [Compound 18, [19CD]-isoGlu-RC()NTATC()ATQRLAEFLHRSSNNF-Gly(Me)-A-Ile(Me)-LSSTNVGSNTP-NH2] ({C20 diacid-γGlu}-RCNTATCATQRLAEFLHRSSNNF[Sar]A[NMeI]LSSTNVGSNTP-NH2; disulfide 2-7) the “caloric intake deriving from LFD” value [2] was “significant increase in caloric intake deriving from LFD”, the body weight gain ([2]; rats self-selecting LFD/HFD) was “reduction of body weight gain” and the “total caloric intake combined from both diets” value ([2]; rats self-selecting LFD/HFD) was “a decrease in the total caloric intake”. For the same compound, the “terminal HbA1c levels” value ([1]; 30 nmol/kg sc every 5th day) was 5.4 ± 0.1%, the “non-fasting blood glucose levels on day 13 and on day 27” value [1] was “significantly lower” and the “fasting blood glucose levels” value [1] was “significantly decreased”. For the same compound, the “mass of fat depots” value (Male Sprague Dawley rats [3]; 4 weeks treatment) was “decrease”, the food intake (Male Sprague Dawley rats [3]; 4 weeks treatment, vs. vehicle) was “significantly decreased” and the “terminal liver fat mass” value (Male Sprague Dawley rats [3]; 5 and 30 nmol/kg, QW, 4 weeks) was “decrease”. The “reduction in body weight gain at the end of the study” value (Male Sprague Dawley rats [3]; high-dose group (30 nmol/kg sc, QW), 4 weeks) was 26%, the “anti-obesity effects with administration every 4th day” value (HFD-fed rats; 5 nmol/kg sc, every 4th day, 4 weeks) was “effects similar to those of Compound 18 dosed QW” and the “mass of fat depots” value (HFD-fed rats; 4 weeks treatment) was “a decrease in mass of fat depots”. The food intake (HFD-fed rats; 4 weeks treatment, vs. vehicle) was “significantly decreased food intake”, the “terminal liver fat mass” value (HFD-fed rats; 5 and 30 nmol/kg, QW, 4 weeks) was “a decrease in terminal liver fat mass” and the body weight gain (Male Sprague Dawley rats [4]) was “reduction”. The “caloric intake deriving from LFD” value (Male Sprague Dawley rats [4]) was “significant increase”, the “terminal blood glucose levels” value (Male Sprague Dawley rats [4]) was “unaffected” and the “total caloric intake combined from both diets” value (Male Sprague Dawley rats [4]) was “decrease”.
